Measured values reported in US8710040B2, “Pharmaceutical composition comprising gabapentin or an analogue thereof and an α-aminoamide and its analgesic use” (Newron Pharmaceuticals S.p.A., priority 2001, dated 2014).
Like-named read-outs stand apart in the source and are kept apart here.

What was measured:
[1] = tested on: monoarthritic rat model of chronic pain induced by complete Freund's adjuvant (CFA); assay: Antiallodynic effect (von Frey mechanical allodynia) in the monoarthritic rat model of chronic pain induced by CFA; format: in vivo; conditions: for ED50: Rattus norvegicus, po, read-out: ED50 (compound alone); for Interaction with GBP on the antiallodynic effect (ED50mix compared with ED50add or ED50 alone): oral co-administration with GBP at fixed ratios; for ED50 (as restated in the formulation example): compound alone, quoted in the 20 mg formulation example
Protocol: This procedure involves the determination of the total amount in the mixture that is required to produce a specified synergistic antiallodynic effect at the 50% dose level (ED50mix) and the corresponding total amount that would be expected under simple additivity (ED50add). Where it is established that ED50mix<ED50add for a specific fixed ratio, then the composition has a synergistic antiallodynic effect. Both the quantities ED50mix and ED50add are random variables. ED50mix was determined from the dose-response curve for a specific fixed ratio of the components; ED50add was calculated from the ED50 values for the individual drugs.
Procedure for Testing the Antiallodynic Effect of the Composition of the Invention
Adult male. Wistar rats (body weight 175-200 g, Harlan-Nossan, Italy) were housed in separate cages with free access to water and standard rat chow at a constant temperature (22±0.5° C.) and relative humidity (60-70%), with a 6.00 am to 6.00 pm light-dark period.
The inflammation was induced in rats by an intra-plantar injection of complete Freund's adjuvant (CFA, Sigma-100 μl) into left hind paw containing heat-killed and dried Mycobacterium tuberculosis in a mixture of paraffin oil and mannide monooleate as emulsifying agent. A group of control animal were injected with 100 μl of mineral oil, the incomplete Freund's adjuvant (IFA, Sigma).
Each animal was allowed to develop the arthritis over an 8-9 day period of before testing.
Rats were placed in individual plastic boxes on a mesh metal floor and allowed to acclimatize for about 30 min. A series of calibrated von Frey hair with logarithmically incremental stiffness (from 2.83 to 5.88×Log10 of the bending force, g) were applied to the paw with the up-down method. Each hair was presented perpendicularly against the paw, with sufficient force to cause slight bending, and held approximately 2-3 sec. The filament was recorded when a positive response was noted (paw withdrawn, licking or shaking).
The antiallodynic effect was expressed as % MPE (Maximal Possible Effect) at 2 h post-dosing.
The rats were all dosed orally with various doses of an α-aminoamide alone, GBP alone, combined doses of an α-aminoamide and GBP or vehicle. The dosing volume was 2 ml/kg. The dosing materials were all prepared in the vehicle, (distilled water); drug weights were calculated as the free base.
Data are presented as mean of 4/6 animals per group/dose.
The ED50 was defined as the dose producing 50% reversal of mechanical hyperalgesia at 2 h after treatment. An experimental ED50 and 95% confidence intervals (CI) were calculated for each compound alone from the linear regressions fitting the experimental data according to the equation y=a+bx.
The different α-aminoamides were then combined with GBP at different ratios in relation to their respective ED50 previously calculated (not limiting examples of the ratios are 1:1; 1:3; 1:9 and respectively 1:1, 3:1 and 9:1 ratios) for the evaluation of the synergic effect.
Multiple (typically 4) doses of each selected ratio were then studied orally for evaluating the synergic effect of the combination.
Each rat received only one treatment.

[2] = Rat Rotarod test (motor impairment and ataxia); conditions: in vivo, po, p.o. at 2 hours, dose causing 50% of the animals to fall from the roller, read-out: TD50 (compound alone)
Protocol: The Rotarod test is an established method used as predictive of CNS-related side effects in humans, and in particular motor impairment and ataxia.
The different α-aminoamides were then combined with GBP at different ratios in relation to their respective TD50 previously calculated (a non limiting example of the ratios is the 1:1 ratio) for the evaluation of the possible synergic effect. Data are presented as mean of 8/10 animals per group/dose.
The test was performed 120 min after drug administration.

[3] = 2 h after single administration, dose producing 50% reversal of mechanical hyperalgesia, CFA rats

Structure (SMILES)	ED50 [1, 3]	Interaction with GBP on the antiallodynic effect (ED50mix compared with ED50add or ED50 alone) [1]	TD50 at 120 min [2]	ED50 ([1]; 2 h)	ED50 (as restated in the formulation example) [1]
CNC(=O)[C@@H](Cc1ccccc1)NCc1ccc(OCc2ccccc2)cc1 [NW-1037, (R)-(−)-2-[4-benzyloxybenzylamino]-3-phenyl-N-methylpropanamide]	3.45 mg/kg	synergic to GBP	–	–	–
CNC(=O)[C@H](C)NCc1ccc(OCc2cccc(F)c2)cc1 [NW-1043, (S)-(+)-2-[4-(3-fluorobenzyloxy)-benzylamino]-N-methyl-propanamide]	7.05 mg/kg	synergic to GBP	–	–	–
NCC1(CC(=O)O)CCCCC1 [GBP, 1-(aminomethyl)cyclohexaneacetic acid, reference compound]	–	–	430 mg/kg	12.4 mg/kg	12.40 mg
C[C@H](NCc1ccc(OCc2ccccc2F)cc1)C(N)=O [NW-1029, (S)-(+)-2-[4-(2-fluorobenzyloxy)benzylamino]propanamide]	0.82 mg/kg	synergic to GBP	470 mg/kg	–	0.82 mg
NC(=O)NN=Cc1ccc(Oc2ccc(F)cc2)cc1 [4-(4′-fluoro-phenoxy)benzaldehyde semicarbazone, reference compound]	14.5 mg/kg	–	–	–	–
